Laboratory results taken from patent US5393752A, “Methylpiperazinoazepine compounds, preparation and use thereof” (Therabel Research S.A./N.V., priority 1994, dated 1995).
Read-outs that look alike come from different tables or passages of the source.

Legend:
[1] = Apomorphine Antagonism Test (in vivo), with locomotion and sedative effect; conditions: examples: "At 20 mg/kg" heads the paragraph
Excerpt: The following results are provided by way of example.

[2] = Catalepsy Test (extrapyramidal effects); assay type: in vivo; conditions: for dose at which catalepsy appears: catalepsy for doses above / cataleptic effect starting from; for cataleptic effect (in words): catalepsy test
Excerpt: See in particular GRAY W. D., OSTERBERG A. C., RAUH C. E., Arch. Int. Pharmacodyn. 134, 198, 1961 and COSTALL B., OLLEY J. E., Neuropharmacology 10, 297, 1971.
This test is representative for the extrapyramidal effects present in numerous neuroleptics (unwanted secondary effect). The compounds of the invention cause very little catalepsy and seem therefore to be free from this unwanted secondary effect. However, some products have shown a slight catalepsy: […]

[3] = tested on: muscarinergic receptors; set-up: species or system CFY rat; conditions: 1.5 nM (3H) QNB, 25° C., pH 7.5, 60 minutes; non-specific binding with 10^-5 M atropin
[4] = target: T1, D2 dopaminergic receptors (Rattus norvegicus, UniProt P61169); test: Affinity test, D2 dopaminergic receptors: (3H)-spiperone displacement in rat striatum membranes; set-up: species or system male Wistar rats; conditions: read-out: Inhibition, % (binding of 3H-spiperone)
T1 construct: The striatum is dissected rapidly and homogenized; from tissue; host or cells: striatum of male Wistar rats, membrane preparation
Procedure: Characterization by (^3 H) spiperone displacement test.
The brain of male Wistar rats (200-250 g) is removed. The striatum is dissected rapidly and homogenized into 20 ml iced buffer ([…], pH=7.4, 25° C.) by means of a Teflon homogenizer. The homogenate is centrifuged at 4° C. at 10000 G during 10 minutes, the concentrate is washed two times with iced buffer and recentrifuged. The final concentrate is suspended into iced buffer (50 nM/HCl, pH=7.4) containing […], […] EDTA. After rehomogenization, the suspension is adjusted to 1 mg proteine per ml.
The binding of (^3 H)-spiperone is evaluated onto the following mixture: 200 μl membrane preparation (0.1-0.2 mg proteine), 100 μl (10^-6 M) test substance and […] buffer for a final volume of 1 ml. Control tubes, which are taken as a reference of the nonspecific binding, contain also 1 μM (+) butaclamol. The samples (in threefold) are then incubated with 0.5 nM (^3 H)spiperone at 25° C. for 60 minutes. This step is stopped by a quick vacuum filtration of the suspension through a glass-fiber filter GF/C. The filter is rinsed three times with 5 ml iced buffer.

[5] = scale from clozapine (20 mg/g) + to haloperidol (0.63 mg/kg) +++++
[6] = test substance 100 μl (10^-6 M) in final volume 1 ml, 0.5 nM (3H)spiperone, 25° C., 60 min, vs 1 μM (+)butaclamol

T1 sequence (P61169 whole entry): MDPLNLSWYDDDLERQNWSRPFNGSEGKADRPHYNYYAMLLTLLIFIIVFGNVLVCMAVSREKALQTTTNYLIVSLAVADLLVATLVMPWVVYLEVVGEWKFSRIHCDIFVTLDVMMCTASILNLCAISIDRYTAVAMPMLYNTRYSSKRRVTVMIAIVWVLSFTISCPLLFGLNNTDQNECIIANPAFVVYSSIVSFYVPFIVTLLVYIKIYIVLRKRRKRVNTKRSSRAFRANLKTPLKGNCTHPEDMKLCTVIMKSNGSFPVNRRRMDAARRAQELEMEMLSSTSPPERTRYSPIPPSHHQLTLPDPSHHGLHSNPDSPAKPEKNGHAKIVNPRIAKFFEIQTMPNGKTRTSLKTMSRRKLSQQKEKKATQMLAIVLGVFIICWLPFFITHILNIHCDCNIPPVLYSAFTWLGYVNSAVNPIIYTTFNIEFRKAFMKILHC

Row | SMILES | Apomorphine antagonism, intensity of activity [1, 5] | Inhibition, % (binding of 3H QNB) [3] | inhibition [4, 6] | further results
1 | CN1CCN(C2=Nc3cccnc3Nc3cc(Cl)ccc32)CC1 [Example 12, 9-chloro-6-(4-methylpiperazin-1-yl)-11H-pyrido(2,3-b)benzo-1,4-diazepine] | + | – | – | –
2 | CN1CCN(C2=Nc3cc(Cl)ccc3Nc3ccccc32)CC1 [Clozapine, reference compound] | + | – | – | dose at which catalepsy appears [2]: ≥ 20 mg/kg; cataleptic effect (in words) [2]: week cataleptic effect
3 | O=C(CCCN1CCC(O)(c2ccc(Cl)cc2)CC1)c1ccc(F)cc1 [Haloperidol, reference compound] | – | – | – | Apomorphine antagonism, intensity of activity ([1]; scale from clozapine + to haloperidol (0.63 mg/kg) +++++): +++++
4 | CN1CCN(C2=Nc3ccccc3[Se]c3ccccc32)CC1 [Example 19] | – | 78.31% | – | inhibition [4]: 26.7%
5 | CN1CCN(C2=Nc3cnccc3Sc3ccccc32)CC1 [Example 18, 10-(4-methylpiperazin-1-yl)pyrido(4,3-b)benzo-1,4-thiazepine] | – | 57.61% | 50.2% | –
6 | CN1CCN(C2=Nc3ccccc3Sc3ccc(Cl)cc32)CC1 [Clothiapine, reference compound] | – | 38.05% | 94.6% | –
7 | CN1CCN(C2=Nc3cccnc3Oc3ccccc32)CC1.O=C(O)/C=C/C(=O)O [Example 7, 6-(4-methylpiperazin-1-yl)pyrido(2,3-b)benzo-1,4-oxazepine fumarate] | + | – | – | –
8 | CN1CCN(C2=Nc3cccnc3Nc3ccc(F)cc32)CC1 [Example 13, 8-fluoro-6-(4-methylpiperazin-1-yl)-11H-pyrido(2,3-b)benzo-1,4-diazepine] | + | – | – | –
9 | CN1CCN(C2=Nc3ccccc3Nc3ccncc32)CC1 [Example 1, 11-(4-methylpiperazin-1-yl)-5H-pyrido(4,3-b)benzo-1,5-diazepine] | – | 4.48% | – | inhibition [4]: 56.2%; dose at which catalepsy appears [2]: above 40 mg/kg
10 | CN1CCN(C2=Nc3cccnc3Sc3ccc(Cl)cc32)CC1.O=C(O)/C=C/C(=O)O [Example 3, 8-chloro-6-(4-methylpiperazin-1-yl)pyrido(2,3-b)benzo-1,4-thiazepine fumarate] | – | – | – | dose at which catalepsy appears [2]: above 40 mg/kg
11 | Cc1ccc2c(c1)C(N1CCN(C)CC1)=Nc1cccnc1N2 [Example 11, 6-(4-methylpiperazin-1-yl)-8-methyl-11H-pyrido(2,3-b)benzo-1,4-diazepine] | – | 67.3% | 24.8% | –
12 | CN1CCN(C2=Nc3cc(Cl)ccc3Oc3ncccc32)CC1.O=C(O)/C=C/C(=O)O [Example 5, 8-chloro-5-(4-methylpiperazin-1-yl)pyrido(2,3-b)benzo-1,5-oxazepine fumarate] | + | – | – | –
13 | CN1CCN(C2=Nc3cccnc3Nc3ccc(Cl)cc32)CC1 [Example 10, 8-chloro-6-(4-methylpiperazin-1-yl)-11H-pyrido(2,3-b)benzo-1,4-diazepine] | – | 62.08% | 31.5% | –
14 | CN1CCN(C2=Nc3ccccc3Oc3ncccc32)CC1.O=C(O)/C=C\C(=O)O [Example 4, 5-(4-methylpiperazin-1-yl)pyrido(2,3-b)benzo-1,5-oxazepine maleate] | – | – | – | dose at which catalepsy appears [2]: ≥ 20 mg/kg; cataleptic effect (in words) [2]: slight cataleptic effect
15 | CN1CCN(C2=Nc3cccnc3N(C=O)c3ccccc32)CC1 [Example 17, 11-formyl-6-(4-methylpiperazin-1-yl)-11H-pyrido(2,3-b)benzo-1,4-diazepine] | – | 43.38% | 22.8% | –
